The values below come from patent US9908893B2 (Latvian Institute of Organic Synthesis, priority 2013, dated 2018).

The target in one data set is P-glycoprotein (P-gp) (Homo sapiens, UniProt P08183). Briefly: Measurement of P-glycoprotein activity: rhodamine 123 accumulation in MES-SA and MES-SA/Dx5 cells. Particulars: for inhibition of MDR transport proteins (P-gp, MRP1, BCRP1), summary in words: summary of the P-gp, MRP1 and BCRP1 efflux assays; for MDR, EC50, P-gp: rhodamine 123 accumulation, doxorubicin resistant MES-SA/Dx5 cells. How it is done:
(§1) Thieno[2,3-b]pyridines of the formula (I) were tested to reveal MDR-blocking activity.
About 50,000 cells/well of the human uterine sarcoma cell line MESSA and MES-SA/Dx5 were seeded into the 96-well plates and incubated for 24 h. The MDR modulators were incubated with the cells for 15 min. […] The EC50 values were calculated using the program Graph Pad Prism® 4.0.

The subject of data set [1] is A7R5 (rat aorta smooth muscle) cells. Nature of the data set: Intracellular Ca2+ measurements, Fluo-4 NW Calcium Assay Kit, KCl-induced [Ca2+]i increase. The class given is cell-based. Particulars: for IC50: Rattus norvegicus, A7R5, read-out: Ca^2+ A7R5, IC50; for Ca^2+ antagonist effect compared with Verapamil: relative to Verapamil; for Ca^2+ antagonist effect compared with Verapamil / Ca^2+ A7R5, IC50: A7R5 cells; for Ca^2+ A7R5, IC50: KCl (50 mM) induced [Ca2+]i increase, compounds 0.8 to 100 μM. How it is done: Changes in intracellular [Ca^2+] concentration were studied using A7R5 (rat aorta smooth muscle) cells and Fluo-4 NW Calcium Assay Kit (“Invitrogen”, Sweden) according to manufacturer's instructions.
Changes in intracellular [Ca^2+]i concentration were studied using Fluo-4 NW Calcium Assay Kit (“Invitrogen”, Sweden) accordingly to manufacturer's instructions. The A7R5 (rat aorta smooth muscle) cells were grown at 37° C. in a humidified atmosphere with 5% CO2/95% air in DMEM medium containing 2 mM glutamine and supplemented with 10% FBS. The cells were seeded into 96 well plate at 10,000 cells/well and incubated for 72 h. The cells were loaded with […] for 45 min. The Fura-4NW loaded cells were pre-incubated in the dark for 15 minutes with tested compounds at concentrations from 0.8 to 100 μM. Then A7R5 cells were pre-treated with 1.5 mM CaCl2 for 5 minutes and KCl (50 mM) was added to A7R5 cells to induce [Ca^2+]i increase. Amlodipine, the well-known calcium channel inhibitor was used as the positive control.

Data set [2] can be described thus: Basal toxicity test, neutral red, alternative LD50 calculated from IC50. Particulars: mouse, LD50, alternative LD50 calculated by formula from IC50 in NIH 3T3 cells. How it is done:
A low therapeutic index of chemotherapy agents is due to affecting not only cancer formation but also normal cells.
9,000 NIH 3T3 cells/well were placed into 96-well plates for 24 h and then exposed to the test compound over a range of eight concentration (1-1000 μg/ml) for 24 h. Upon that, the cells were incubated with the neutral red dye for 4 h and then OD was determined at 540 nm. […] The IC50 values were calculated using the program Graph Pad Prism® 4.0

In the next data set the target is MRP1 (Homo sapiens, UniProt P33527). Nature of the data set: cell-based. Particulars: calcein AM assay, DOX resistant H69AR cells. The procedure:
as §1
About 60,000 cells/well of the human lung carcinoma cell line H69 and H69AR were seeded into the 96-well plates and incubated for 24 h. The compounds were incubated with the cells for 15 min. […] The EC50 values was calculated using the program Graph Pad Prism® 4.0

The target in the next data set is T1, BCRP1 (Homo sapiens, UniProt Q9UNQ0).
T1 sequence (Q9UNQ0 1-655): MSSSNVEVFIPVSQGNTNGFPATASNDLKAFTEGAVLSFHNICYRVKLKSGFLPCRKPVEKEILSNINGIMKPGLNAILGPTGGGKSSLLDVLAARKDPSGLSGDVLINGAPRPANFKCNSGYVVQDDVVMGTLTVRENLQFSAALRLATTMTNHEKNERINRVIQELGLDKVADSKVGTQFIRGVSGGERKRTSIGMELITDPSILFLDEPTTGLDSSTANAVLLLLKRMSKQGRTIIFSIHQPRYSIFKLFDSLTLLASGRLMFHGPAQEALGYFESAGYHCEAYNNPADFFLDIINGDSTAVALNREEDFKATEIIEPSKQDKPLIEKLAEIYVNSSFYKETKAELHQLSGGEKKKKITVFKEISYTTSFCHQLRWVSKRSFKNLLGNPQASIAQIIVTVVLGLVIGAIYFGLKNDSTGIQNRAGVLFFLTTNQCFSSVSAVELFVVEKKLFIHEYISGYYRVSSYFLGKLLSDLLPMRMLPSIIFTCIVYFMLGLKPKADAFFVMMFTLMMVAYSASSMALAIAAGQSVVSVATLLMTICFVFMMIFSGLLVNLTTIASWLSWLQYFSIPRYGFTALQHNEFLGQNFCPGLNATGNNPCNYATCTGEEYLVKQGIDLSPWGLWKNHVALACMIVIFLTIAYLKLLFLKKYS
Briefly: cell-based. The procedure:
as §1
About 50,000 cells/well of the MESSA and MES-SA/MX2 were seeded into the 96-well plates and incubated for 24 h. The MDR modulators were incubated with the cells for 15 min. […] The EC50 values were calculated using the program Graph Pad Prism® 4.0

Chain of MRP1 (P33527 whole entry): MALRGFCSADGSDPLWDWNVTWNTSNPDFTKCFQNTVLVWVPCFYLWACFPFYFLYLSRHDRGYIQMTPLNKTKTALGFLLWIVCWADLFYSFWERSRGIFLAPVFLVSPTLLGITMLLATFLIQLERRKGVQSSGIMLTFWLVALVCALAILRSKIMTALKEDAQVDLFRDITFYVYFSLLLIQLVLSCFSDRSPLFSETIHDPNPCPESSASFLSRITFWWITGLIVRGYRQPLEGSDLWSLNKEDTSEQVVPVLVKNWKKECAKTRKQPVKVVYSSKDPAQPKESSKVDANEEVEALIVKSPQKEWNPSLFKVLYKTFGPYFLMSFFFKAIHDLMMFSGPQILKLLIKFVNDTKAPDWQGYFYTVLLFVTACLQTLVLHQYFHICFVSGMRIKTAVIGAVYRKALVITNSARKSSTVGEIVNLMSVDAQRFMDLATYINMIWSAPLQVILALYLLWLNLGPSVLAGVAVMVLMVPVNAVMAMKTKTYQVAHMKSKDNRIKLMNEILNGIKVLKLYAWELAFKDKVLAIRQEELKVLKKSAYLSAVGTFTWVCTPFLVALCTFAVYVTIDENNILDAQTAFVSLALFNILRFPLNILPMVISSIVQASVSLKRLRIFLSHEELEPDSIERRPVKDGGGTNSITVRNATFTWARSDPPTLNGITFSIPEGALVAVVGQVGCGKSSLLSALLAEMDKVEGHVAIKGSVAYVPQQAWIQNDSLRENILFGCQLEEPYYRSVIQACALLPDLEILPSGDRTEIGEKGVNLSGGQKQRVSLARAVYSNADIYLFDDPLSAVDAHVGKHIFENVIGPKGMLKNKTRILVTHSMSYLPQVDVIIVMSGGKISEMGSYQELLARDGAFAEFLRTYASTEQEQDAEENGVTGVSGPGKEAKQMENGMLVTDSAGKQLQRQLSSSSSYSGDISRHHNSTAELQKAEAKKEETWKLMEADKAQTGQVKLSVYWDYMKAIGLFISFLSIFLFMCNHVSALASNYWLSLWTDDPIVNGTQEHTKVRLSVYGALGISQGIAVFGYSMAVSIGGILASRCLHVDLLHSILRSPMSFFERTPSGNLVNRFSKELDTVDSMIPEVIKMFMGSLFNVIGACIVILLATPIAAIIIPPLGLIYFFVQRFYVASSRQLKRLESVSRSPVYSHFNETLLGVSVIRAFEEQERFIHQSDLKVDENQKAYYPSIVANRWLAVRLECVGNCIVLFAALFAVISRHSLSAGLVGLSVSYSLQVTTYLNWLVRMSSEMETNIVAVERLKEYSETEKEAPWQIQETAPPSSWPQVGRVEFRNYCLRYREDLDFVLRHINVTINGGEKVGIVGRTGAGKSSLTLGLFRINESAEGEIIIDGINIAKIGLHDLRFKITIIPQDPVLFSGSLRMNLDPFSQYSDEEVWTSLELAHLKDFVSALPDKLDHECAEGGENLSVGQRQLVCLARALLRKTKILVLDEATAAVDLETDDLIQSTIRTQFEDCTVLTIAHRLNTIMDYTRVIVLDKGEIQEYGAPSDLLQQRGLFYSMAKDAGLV
Chain of P-glycoprotein (P-gp) (P08183 whole entry): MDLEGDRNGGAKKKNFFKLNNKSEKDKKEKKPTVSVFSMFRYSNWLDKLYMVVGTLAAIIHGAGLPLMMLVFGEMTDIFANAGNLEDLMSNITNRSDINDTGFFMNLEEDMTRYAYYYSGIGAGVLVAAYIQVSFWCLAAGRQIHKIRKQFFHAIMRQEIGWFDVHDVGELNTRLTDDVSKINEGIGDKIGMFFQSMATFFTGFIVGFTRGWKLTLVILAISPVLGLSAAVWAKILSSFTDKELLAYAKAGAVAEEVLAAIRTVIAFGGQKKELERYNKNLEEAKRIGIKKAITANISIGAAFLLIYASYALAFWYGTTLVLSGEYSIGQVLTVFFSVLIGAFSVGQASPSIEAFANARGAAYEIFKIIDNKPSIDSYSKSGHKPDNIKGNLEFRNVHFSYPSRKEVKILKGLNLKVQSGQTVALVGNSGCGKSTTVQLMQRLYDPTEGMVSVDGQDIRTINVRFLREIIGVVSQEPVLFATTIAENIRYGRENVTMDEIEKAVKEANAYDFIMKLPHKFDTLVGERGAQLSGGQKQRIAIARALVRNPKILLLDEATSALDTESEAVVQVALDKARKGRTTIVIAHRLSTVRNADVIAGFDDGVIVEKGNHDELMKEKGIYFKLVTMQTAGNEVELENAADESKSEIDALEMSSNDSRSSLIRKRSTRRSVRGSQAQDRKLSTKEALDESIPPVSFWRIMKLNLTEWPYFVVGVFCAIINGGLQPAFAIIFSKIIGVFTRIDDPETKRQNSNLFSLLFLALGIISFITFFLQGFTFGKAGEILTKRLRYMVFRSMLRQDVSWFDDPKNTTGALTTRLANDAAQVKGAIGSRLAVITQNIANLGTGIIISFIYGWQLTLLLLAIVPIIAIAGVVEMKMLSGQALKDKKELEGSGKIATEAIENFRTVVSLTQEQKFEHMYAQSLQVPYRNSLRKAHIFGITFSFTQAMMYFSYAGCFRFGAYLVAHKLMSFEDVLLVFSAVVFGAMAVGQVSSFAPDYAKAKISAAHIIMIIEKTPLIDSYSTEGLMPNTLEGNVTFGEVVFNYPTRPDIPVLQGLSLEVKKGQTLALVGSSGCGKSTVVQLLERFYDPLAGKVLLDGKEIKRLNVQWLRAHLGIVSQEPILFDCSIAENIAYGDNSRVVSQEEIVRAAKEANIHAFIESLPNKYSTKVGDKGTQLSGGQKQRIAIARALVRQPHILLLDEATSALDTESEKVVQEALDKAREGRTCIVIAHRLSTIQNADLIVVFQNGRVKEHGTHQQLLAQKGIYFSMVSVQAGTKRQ

On to `COC(=O)c1c(C)nc2sc(C(=O)c3ccc(OC)cc3)c(N)c2c1-c1cc(OC)c(OC)c(OC)c1` [Compound 10, 3-Amino-2-(4-methoxybenzoyl)-6-methyl-4-(3,4,5-trimethoxyphenyl)thieno[2,3-b]pyridine-5-carboxylic acid methyl ester], for which the “inhibition of MDR transport proteins (P-gp, MRP1, BCRP1), summary in words” value against P-glycoprotein (P-gp) was “inhibit three MDR transport proteins: P-gp, MRP1 and BCRP1”. In addition, in data set [1], the IC50 is 9 ± 0.7 µM and the “Ca^2+ antagonist effect compared with Verapamil” value is “more than ten times lower”. Besides, the LD50 at 24 h in data set [2] was greater than 2000 mg/kg.

On to `COC(=O)c1c(C)nc2sc(C(=O)c3ccc(OC)cc3OC)c(N)c2c1-c1cc(OC)c(OC)c(OC)c1` [Compound 11, 3-Amino-2-(2,4-dimethoxybenzoyl)-6-methyl-4-(3,4,5-trimethoxyphenyl)thieno[2,3-b]pyridine-5-carboxylic acid methyl ester], for which the “inhibition of MDR transport proteins (P-gp, MRP1, BCRP1), summary in words” value against P-glycoprotein (P-gp) is “inhibit three MDR transport proteins: P-gp, MRP1 and BCRP1”. In addition, in data set [1], the IC50 was found to be 18 ± 1 µM and the “Ca^2+ antagonist effect compared with Verapamil” value was “more than ten times lower”. Besides, the median lethal dose (LD50) at 24 h in data set [2] was greater than 2000 mg/kg.

For `CCOC(=O)c1c(C)nc2sc(C(=O)c3ccc(OC)cc3)c(N)c2c1-c1ccc(Cl)cc1` [Compound 28, 3-Amino-4-(4-chlorophenyl)-2-(4-methoxybenzoyl)-6-methylthieno[2,3-b]-pyridine-5-carboxylic acid ethylester], the IC50 in data set [1] was greater than 100 µM. Moreover, the LD50 at 24 h in data set [2] is greater than 2000 mg/kg.

As to `CCOC(=O)c1c(C)nc2sc(C(=O)c3ccc(OC)cc3)c(N)c2c1-c1ccc(N(C)C)cc1` [Compound 29, 3-Amino-4-(4-dimethylaminophenyl)-2-(4-methoxybenzoyl)-6-methylthieno[2,3-b]-pyridine-5-carboxylic acid ethylester], the “inhibition of MDR transport proteins (P-gp, MRP1, BCRP1), summary in words” value against P-glycoprotein (P-gp) was “selectively inhibit P-gp and BCRP1”. Besides, the IC50 in data set [1] stood at 35 ± 3 µM. Moreover, the LD50 at 24 h in data set [2] is greater than 2000 mg/kg.

In the case of `CCCCOC(=O)c1c(C)nc2sc(C(=O)c3ccc(OC)cc3)c(N)c2c1-c1cc(OC)c(OC)c(OC)c1` [Compound 30, 3-Amino-2-(4-methoxybenzoyl)-6-methyl-4-(3,4,5-trimethoxyphenyl)thieno[2,3-b]-pyridine-5-carboxylic acid butyl ester], the IC50 in data set [1] is 5 ± 0.7 µM. In addition, the median lethal dose (LD50) at 24 h in data set [2] was greater than 2000 mg/kg.

For the compound `COCCOC(=O)c1c(C)nc2sc(C(=O)c3ccc(OC)cc3)c(N)c2c1-c1ccc(OC)cc1` [Compound 31, 3-Amino-2-(4-methoxybenzoyl)-4-(4-methoxyphenyl)-6-methylthieno[2,3-b]-pyridine-5-carboxylic acid 2-methoxyethyl ester], the IC50 in data set [1] was 21 ± 4 µM. Moreover, the LD50 at 24 h in data set [2] is greater than 2000 mg/kg.

As to `COCCOC(=O)c1c(C)nc2sc(C(=O)c3ccccc3)c(N)c2c1-c1cc(OC)c(OC)c(OC)c1` [Compound 32, 3-Amino-2-benzoyl-6-methyl-4-(3,4,5-trimethoxyphenyl)thieno[2,3-b]pyridine-5-carboxylic acid 2-methoxyethyl ester], in data set [1], the 50% inhibitory concentration (IC50) was 2.2 ± 0.3 µM and the “Ca^2+ antagonist effect compared with Verapamil” value is on record as “more than ten times lower”. In addition, the LD50 at 24 h in data set [2] is greater than 2000 mg/kg.

In the case of `COCCOC(=O)c1c(C)nc2sc(C(=O)c3cccc(OC)c3)c(N)c2c1-c1cc(OC)c(OC)c(OC)c1` [Compound 33, 3-Amino-2-(3-methoxybenzoyl)-6-methyl-4-(3,4,5-trimethoxyphenyl)thieno[2,3-b]-pyridine-5-carboxylic acid 2-methoxyethyl ester], the “inhibition of MDR transport proteins (P-gp, MRP1, BCRP1), summary in words” value at P-glycoprotein (P-gp) is “selectively inhibit P-gp and BCRP1”. Besides, the 50% inhibitory concentration (IC50) in data set [1] came out at 6.2 ± 0.7 µM. In data set [2], the median lethal dose (LD50) at 24 h is greater than 2000 mg/kg.

As to `COCCOC(=O)c1c(C)nc2sc(C(=O)c3ccc(OC)cc3)c(N)c2c1-c1cc(OC)c(OC)c(OC)c1` [Compound 34, 3-Amino-2-(4-methoxybenzoyl)-6-methyl-4-(3,4,5-trimethoxyphenyl)thieno[2,3-b]-pyridine-5-carboxylic acid 2-methoxyethyl ester], in data set [1], the IC50 came to 3.1 ± 0.4 µM and the “Ca^2+ antagonist effect compared with Verapamil” value is recorded as “more than ten times lower”. The LD50 at 24 h in data set [2] was greater than 2000 mg/kg.

Turning to `COCCOC(=O)c1c(C)nc2sc(C(=O)c3ccc(OC)cc3OC)c(N)c2c1-c1cc(OC)c(OC)c(OC)c1` [Compound 35, 3-Amino-2-(2,4-dimethoxybenzoyl)-6-methyl-4-(3,4,5-trimethoxyphenyl)-thieno[2,3-b]pyridine-5-carboxylic acid 2-methoxyethyl ester], in data set [1], the 50% inhibitory concentration (IC50) was found to be 9 ± 1 µM and the “Ca^2+ antagonist effect compared with Verapamil” value is recorded as “more than ten times lower”. In addition, the 50% lethal dose (LD50) at 24 h in data set [2] is greater than 2000 mg/kg.

Take `CCOC(=O)c1c(-c2cc(OC)c(OC)c(OC)c2)nc2sc(C(=O)c3ccc(OC)cc3)c(N)c2c1-c1cc(OC)c(OC)c(OC)c1` [Compound 39, 3-Amino-4,6-bis-(3,4,5-trimethoxyphenyl)-2-(4-methoxybenzoyl)thieno[2,3-b]-pyridine-5-carboxylic acid ethyl ester]: the “Ca^2+ A7R5, IC50” value in data set [1] is on record as “No effect”. In addition, the LD50 at 24 h in data set [2] was greater than 2000 mg/kg.

Consider `CCOC(=O)c1c(-c2cc(OC)c(OC)c(OC)c2)nc2sc(C(=O)c3cc(OC)c(OC)c(OC)c3)c(N)c2c1-c1cc(OC)c(OC)c(OC)c1` [Compound 40, 3-Amino-4,6-bis-(3,4,5-trimethoxyphenyl)-2-(3,4,5-trimethoxybenzoyl)-thieno[2,3-b]pyridine-5-carboxylic acid ethyl ester], for which the “Ca^2+ A7R5, IC50” value in data set [1] is given as “No effect”. For the same compound, the LD50 at 24 h in data set [2] is greater than 2000 mg/kg.

Consider `COC(=O)c1c(C)nc2sc(C(=O)c3ccc4ccccc4c3)c(N)c2c1-c1cc(OC)c(OC)c(OC)c1` [Compound 41, 3-Amino-6-methyl-2-(naphthalene-2-carbonyl)-4-(3,4,5-trimethoxyphenyl)-thieno[2,3-b]pyridine-5-carboxylic acid methyl ester], for which the results for the EC50 on P-glycoprotein (P-gp) and at BCRP1 were 10.5 ± 0.7 µM and 0.8 ± 0.2 µM, respectively. Moreover, at MRP1, the “MDR, EC50, MRP1” value is listed as “No effect”. Further, the IC50 in data set [1] came out at 18 ± 1.4 µM. Besides, the 50% lethal dose (LD50) at 24 h in data set [2] was greater than 2000 mg/kg.

On to `CCOC(=O)c1c(C)nc2sc(C(=O)c3ccc(OC)cc3)c(N)c2c1-c1ccco1` [Compound 43, 3-Amino-4-(furan-2-yl)-2-(4-methoxybenzoyl)-6-methylthieno[2,3-b]pyridine-5-carboxylic acid ethyl ester], for which the “MDR, EC50, P-gp” value at P-glycoprotein (P-gp) was “No effect”. Moreover, the “MDR, EC50, MRP1” value on MRP1 is reported as “No effect”. Further, on BCRP1 (Hoechst 33342, mitoxantrone resistant MES-SA/MX2 cells), the “MDR, EC50, BCRP1” value was “No effect”.

Consider `COc1cc(-c2cc(-c3cc(OC)c(OC)c(OC)c3)c3c(N)c(C(=O)c4ccc(Cl)cc4)sc3n2)cc(OC)c1OC` [Compound 47, 3-Amino-4,6-bis-(3,4,5-trimethoxyphenyl)-2-(4-chlorobenzoyl)thieno[2,3-b]-pyridine], for which the results for the EC50 at P-glycoprotein (P-gp) and on BCRP1 were 31.4 ± 0.8 µM and 14.5 ± 3.5 µM, respectively. Further, the “MDR, EC50, MRP1” value on MRP1 is “No effect”. Also, the LD50 at 24 h in data set [2] was greater than 2000 mg/kg.

For `CN(C)C(=O)CCSC(SCCC(=O)O)c1cccc(/C=C/c2ccc3ccc(Cl)cc3n2)c1` (stereo not drawn) [MK-571, reference compound], the “MDR, EC50, P-gp” value at P-glycoprotein (P-gp) is listed as “No effect”. Besides, in data set [1], the “Ca^2+ A7R5, IC50” value is “No effect”. Moreover, in data set [2], the LD50 at 24 h is 752 mg/kg.

As usually defined, the IC50 is the point on the concentration scale where inhibition reaches its midpoint. The term LD50 denotes the dose expected to kill half of the subjects tested. The EC50 is the concentration giving half of the maximal effect. Higher therefore signals a need for much substance.
